Measured values published in ChEMBL document CHEMBL1143342, “Death receptor 5 targeting activity-guided isolation of isoflavones from Millettia brandisiana and Ardisia colorata and evaluation of ability to induce TRAIL-mediated apoptosis” (2009).
Calls of active or inactive are those of the source. The calls are words filed in the database; no cut-off is given here.

What was measured:
DLD-1 = test: Induction of DR5 promoter activity in SacI gene expressing human DLD1 cells at 17.5 uM after 24 hrs by luminescence assay; assay type: functional
AGS [1] = test: Sensitization of TRAIL-induced apoptosis in TRAIL-resistant human AGS cells assessed as late apoptotic cells at 60 uM after 24 hrs using annexin-V-FITC/propidium iodide staining assay; assay type: functional
AGS [2] = test: Sensitization of TRAIL-induced apoptosis in TRAIL-resistant human AGS cells assessed as early apoptotic cells at 60 uM after 24 hrs using annexin-V-FITC/propidium iodide staining by flow cytometry; assay type: functional
AGS [3] = test: Induction of apoptosis in TRAIL-resistant human AGS cells assessed as late apoptotic cells at 50 uM after 24 hrs using annexin-V-FITC/propidium iodide staining by flow cytometry; assay type: functional
AGS [4] = test: Induction of apoptosis in TRAIL-resistant human AGS cells assessed as early apoptotic cells at 40 uM after 24 hrs using annexin-V-FITC/propidium iodide staining by flow cytometry; assay type: functional
AGS [5] = test: Induction of DR5 protein expression in TRAIL-resistant human AGS cells after 24 hrs by Western blot analysis; assay type: functional, cell-based
AGS [6] = test: Sensitization of TRAIL-induced apoptosis in TRAIL-resistant human AGS cells assessed as accumulation at sub-G1 phase at 60 uM after 24 hrs using annexin-V-FITC/propidium iodide staining by flow cytometry in presence of DR5/Fc chimeric protein; assay type: functional, cell-based
AGS [7] = test: Sensitization of TRAIL-induced apoptosis in TRAIL-resistant human AGS cells assessed as late apoptotic cells at 40 uM after 24 hrs using annexin-V-FITC/propidium iodide staining by flow cytometry; assay type: functional
AGS [8] = test: Induction of apoptosis in TRAIL-resistant human AGS cells assessed as early apoptotic cells at 60 uM after 24 hrs using annexin-V-FITC/propidium iodide staining by flow cytometry; assay type: functional
AGS [9] = test: Induction of apoptosis in TRAIL-resistant human AGS cells assessed as early apoptotic cells at 50 uM after 24 hrs using annexin-V-FITC/propidium iodide staining by flow cytometry; assay type: functional
AGS [10] = test: Induction of apoptosis in TRAIL-resistant human AGS cells assessed as late apoptotic cells at 40 uM after 24 hrs using annexin-V-FITC/propidium iodide staining by flow cytometry; assay type: functional
AGS [11] = test: Induction of apoptosis in TRAIL-resistant human AGS cells assessed as late apoptotic cells at 60 uM after 24 hrs using annexin-V-FITC/propidium iodide staining by flow cytometry; assay type: functional
AGS [12] = test: Sensitization of TRAIL-induced apoptosis in TRAIL-resistant human AGS cells assessed as early apoptotic cells at 40 uM after 24 hrs using annexin-V-FITC/propidium iodide staining by flow cytometry; assay type: functional
AGS [13] = test: Sensitization of TRAIL-induced apoptosis in TRAIL-resistant human AGS cells assessed as late apoptotic cells at 50 uM after 24 hrs using annexin-V-FITC/propidium iodide staining by flow cytometry; assay type: functional
AGS [14] = test: Sensitization of TRAIL-induced apoptosis in TRAIL-resistant human AGS cells assessed as increase in DR5 expression; assay type: functional, cell-based
AGS [15] = test: Induction of TRAIL-induced apoptosis in TRAIL-resistant human AGS cells assessed as increase in caspase 3/7 activity after 24 hrs by luminescence assay; assay type: functional, cell-based
AGS [16] = test: Induction of DR5 mRNA expression in TRAIL-resistant human AGS cells by RT-PCR; assay type: functional, cell-based
AGS [17] = test: Sensitization of TRAIL-induced apoptosis in TRAIL-resistant human AGS cells assessed as early apoptotic cells at 50 uM after 24 hrs using annexin-V-FITC/propidium iodide staining by flow cytometry; assay type: functional
AGS [18] = test: Induction of TRAIL-induced apoptosis in TRAIL-resistant human AGS cells assessed as increase in caspase 8 activity after 12 hrs by luminescence assay; assay type: functional, cell-based

Row | SMILES | Activity (DLD-1) | Activity (AGS [1]) | Activity (AGS [2]) | Activity (AGS [3]) | Activity (AGS [4]) | Activity (AGS [5]) | Activity (AGS [6]) | Activity (AGS [7]) | Activity (AGS [8]) | Activity (AGS [9]) | Activity (AGS [10]) | Activity (AGS [11]) | Activity (AGS [12]) | Activity (AGS [13]) | Activity (AGS [14]) | Activity (AGS [15]) | Activity (AGS [16]) | Activity (AGS [17]) | Activity (AGS [18])
1 | COc1ccc(-c2coc3cc(O)ccc3c2=O)c(O)c1 [XENOGNOSIN B] | 2.5 |  |  |  |  |  |  |  |  |  |  |  |  |  |  |  |  |  | 
2 | COc1cc(-c2coc3c4c(cc(O)c3c2=O)OC(C)(C)C=C4)c(OC)cc1O |  | 44.1% | 23.4% | 3.9% | 9.6% | Dose-dependent effect | inactive | 12.9% | 17.4% | 15.2% | 5.6% | 6.9% | 12.1% | 19.5% | Active | Dose-dependent effect | Dose-dependent effect | 16.3% | Dose-dependent effect
